Source: patent US20260083714A1, “DOSING REGIMEN FOR TREATING PKU WITH A PIPERIDINE INHIBITOR OF SLC6A19 FUNCTION” (Jnana Therapeutics Inc., priority 2022, published 2026)

What was measured:
[1] = Plasma levels of Compound 1 over 24 hours after 14 days of suspension administration in healthy volunteers; type: in vivo; settings: human, oral; for concentration at 0 h: 0 h post-dose; for concentration at 0.5 h: 0.5 h post-dose; for concentration at 1 h: 1 h post-dose; for concentration at 1.5 h: 1.5 h post-dose; for concentration at 2 h: 2 h post-dose; for concentration at 2.5 h: 2.5 h post-dose; for concentration at 3 h: 3 h post-dose; for concentration at 4 h: 4 h post-dose; for concentration at 6 h: 6 h post-dose; for concentration at 8 h: 8 h post-dose; for concentration at 8.5 h: 8.5 h post-dose; for concentration at 9 h: 9 h post-dose; for concentration at 9.5 h: 9.5 h post-dose; for concentration at 10 h: 10 h post-dose; for concentration at 10.5 h: 10.5 h post-dose; for concentration at 11.5 h: 11.5 h post-dose; for concentration at 12 h: 12 h post-dose; for concentration at 14 h: 14 h post-dose; for concentration at 16 h: 16 h post-dose; for concentration at 24 h: 24 h post-dose
Method: FIG. 2 is an assessment of the pharmacokinetics of Compound 1 in healthy volunteers over 24 hours after 14 days of administration of a suspension of the compound at three different doses (25 or 75 mg twice daily [BID] or 150 mg once daily [QD]).
A suspension formulation of varying doses of Compound 1 (25 or 75 mg twice daily [BID] or 150 mg once daily [QD]) was administered to healthy volunteers. Plasma levels of Compound 1 over 24 hours after 14 days of administration were measured (FIG. 2). Post-dose plasma levels are recited in Table 14.

SLC6A19 = target: T1, SLC6A19 (Homo sapiens, UniProt Q695T7); test: Amino acid excretion over 24 h after a single dose of suspension in healthy volunteers; type: in vivo
T1 construct: SCL6A19 is located in the proximal tubule of the kidney and is responsible for reabsorption of amino acids back into the blood; from tissue; host or cells: Kidney proximal tubule of healthy volunteers (in vivo, endogenous)
T1 sequence (Q695T7 1-634): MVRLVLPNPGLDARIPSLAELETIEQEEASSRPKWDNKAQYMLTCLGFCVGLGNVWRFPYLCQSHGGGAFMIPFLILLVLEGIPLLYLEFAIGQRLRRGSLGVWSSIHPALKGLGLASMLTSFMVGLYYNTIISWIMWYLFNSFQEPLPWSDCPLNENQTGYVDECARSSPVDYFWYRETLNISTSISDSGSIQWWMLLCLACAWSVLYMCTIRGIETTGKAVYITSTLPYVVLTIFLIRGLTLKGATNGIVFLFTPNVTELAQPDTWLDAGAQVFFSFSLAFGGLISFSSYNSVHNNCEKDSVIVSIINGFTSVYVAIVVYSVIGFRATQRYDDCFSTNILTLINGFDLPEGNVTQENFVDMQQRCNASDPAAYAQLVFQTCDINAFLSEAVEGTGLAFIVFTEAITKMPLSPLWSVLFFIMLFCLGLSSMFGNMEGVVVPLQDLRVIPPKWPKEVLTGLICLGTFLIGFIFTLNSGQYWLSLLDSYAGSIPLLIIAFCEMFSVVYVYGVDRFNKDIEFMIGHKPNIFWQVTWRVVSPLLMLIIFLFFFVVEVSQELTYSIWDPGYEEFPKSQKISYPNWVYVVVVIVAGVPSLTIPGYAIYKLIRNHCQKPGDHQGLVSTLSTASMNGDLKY
T1 sequence (Q9HBJ8 15-222 partner): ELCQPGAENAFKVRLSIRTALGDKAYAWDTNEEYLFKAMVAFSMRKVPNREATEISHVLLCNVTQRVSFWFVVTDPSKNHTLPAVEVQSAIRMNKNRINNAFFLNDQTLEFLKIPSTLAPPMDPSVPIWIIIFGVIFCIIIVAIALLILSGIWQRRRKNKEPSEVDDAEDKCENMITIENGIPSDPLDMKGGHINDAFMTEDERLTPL
Method: FIG. 1 is a graph of the pharmacodynamic effect of Compound 1 in healthy volunteers showing changes in total phenylalanine or overall SLC6A19 amino acid substrates (Hartnup amino acids) excretion over 24 hours following administration of a single dose of the compound (10-170 mg) in the form of a suspension.
A suspension formulation of varying doses of Compound 1 (10-170 mg) was administered to healthy volunteers. Changes in amino acid excretion over 24 h following a single dose were measured (FIG. 1). Up to a 14-fold increase in total Phe excretion (from 10 mg to 142 mg) and a 16-fold increase in Hartnup AA excretion (from 0.29 g to 4.8 g) were observed over 24 hr after dosing (Tables 13A and 13B).

[2] = single dose suspension, highest value of 10-170 mg

concentration at 0 h ([1]; 25 mg BID suspension): 186 ng/mL
concentration at 0.5 h ([1]; 25 mg BID suspension): 1190 ng/mL
concentration at 1 h ([1]; 25 mg BID suspension): 1090 ng/mL
concentration at 1.5 h ([1]; 25 mg BID suspension): 1000 ng/mL
concentration at 2 h ([1]; 25 mg BID suspension): 922 ng/mL
concentration at 2.5 h ([1]; 25 mg BID suspension): 899 ng/mL
concentration at 3 h ([1]; 25 mg BID suspension): 820 ng/mL
concentration at 4 h ([1]; 25 mg BID suspension): 682 ng/mL
concentration at 6 h ([1]; 25 mg BID suspension): 442 ng/mL
concentration at 8 h ([1]; 25 mg BID suspension): 336 ng/mL
concentration at 8.5 h ([1]; 25 mg BID suspension): 894 ng/mL
concentration at 9 h ([1]; 25 mg BID suspension): 977 ng/mL
concentration at 9.5 h ([1]; 25 mg BID suspension): 1010 ng/mL
concentration at 10 h ([1]; 25 mg BID suspension): 1010 ng/mL
concentration at 10.5 h ([1]; 25 mg BID suspension): 957 ng/mL
concentration at 11.5 h ([1]; 25 mg BID suspension): 909 ng/mL
concentration at 12 h ([1]; 25 mg BID suspension): 748 ng/mL
concentration at 14 h ([1]; 25 mg BID suspension): 562 ng/mL
concentration at 16 h ([1]; 25 mg BID suspension): 422 ng/mL
concentration at 24 h ([1]; 25 mg BID suspension): 193 ng/mL
concentration at 0 h ([1]; 75 mg BID suspension): 916 ng/mL
concentration at 0.5 h ([1]; 75 mg BID suspension): 3350 ng/mL
concentration at 1 h ([1]; 75 mg BID suspension): 3860 ng/mL
concentration at 1.5 h ([1]; 75 mg BID suspension): 3550 ng/mL
concentration at 2 h ([1]; 75 mg BID suspension): 3330 ng/mL
concentration at 2.5 h ([1]; 75 mg BID suspension): 3140 ng/mL
concentration at 3 h ([1]; 75 mg BID suspension): 2910 ng/mL
concentration at 4 h ([1]; 75 mg BID suspension): 2610 ng/mL
concentration at 6 h ([1]; 75 mg BID suspension): 2000 ng/mL
concentration at 8 h ([1]; 75 mg BID suspension): 1600 ng/mL
concentration at 8.5 h ([1]; 75 mg BID suspension): 3430 ng/mL
concentration at 9 h ([1]; 75 mg BID suspension): 3600 ng/mL
concentration at 9.5 h ([1]; 75 mg BID suspension): 3740 ng/mL
concentration at 10 h ([1]; 75 mg BID suspension): 3600 ng/mL
concentration at 10.5 h ([1]; 75 mg BID suspension): 3740 ng/mL
concentration at 11.5 h ([1]; 75 mg BID suspension): 3200 ng/mL
concentration at 12 h ([1]; 75 mg BID suspension): 2900 ng/mL
concentration at 14 h ([1]; 75 mg BID suspension): 2280 ng/mL
concentration at 16 h ([1]; 75 mg BID suspension): 1850 ng/mL
concentration at 24 h ([1]; 75 mg BID suspension): 741 ng/mL
concentration at 0 h ([1]; 150 mg QD suspension): 299 ng/mL
concentration at 0.5 h ([1]; 150 mg QD suspension): 4230 ng/mL
concentration at 1 h ([1]; 150 mg QD suspension): 4590 ng/mL
concentration at 1.5 h ([1]; 150 mg QD suspension): 4360 ng/mL
concentration at 2 h ([1]; 150 mg QD suspension): 4100 ng/mL
concentration at 2.5 h ([1]; 150 mg QD suspension): 3940 ng/mL
concentration at 3 h ([1]; 150 mg QD suspension): 3660 ng/mL
concentration at 4 h ([1]; 150 mg QD suspension): 3130 ng/mL
concentration at 6 h ([1]; 150 mg QD suspension): 2270 ng/mL
concentration at 8 h ([1]; 150 mg QD suspension): 1750 ng/mL
concentration at 10 h ([1]; 150 mg QD suspension): 1360 ng/mL
concentration at 12 h ([1]; 150 mg QD suspension): 1000 ng/mL
concentration at 24 h ([1]; 150 mg QD suspension): 247 ng/mL
Excretion amounts over 24 h, Hartnup Amino Acids, Mean (SLC6A19; single dose 10 mg suspension): 712.45 mg
Excretion amounts over 24 h, Phenylalanine, Mean (SLC6A19; single dose 10 mg suspension): 12.50 mg
Excretion amounts over 24 h, Hartnup Amino Acids, Mean (SLC6A19; single dose 25 mg suspension): 1213.02 mg
Excretion amounts over 24 h, Phenylalanine, Mean (SLC6A19; single dose 25 mg suspension): 21.02 mg
Excretion amounts over 24 h, Hartnup Amino Acids, Mean (SLC6A19; single dose 50 mg suspension): 2560.22 mg
Excretion amounts over 24 h, Phenylalanine, Mean (SLC6A19; single dose 50 mg suspension): 51.53 mg
Excretion amounts over 24 h, Hartnup Amino Acids, Mean (SLC6A19; single dose 100 mg suspension): 3281.75 mg
Excretion amounts over 24 h, Phenylalanine, Mean (SLC6A19; single dose 100 mg suspension): 77.84 mg
Excretion amounts over 24 h, Hartnup Amino Acids, Mean (SLC6A19; single dose 170 mg suspension): 4823.71 mg
Excretion amounts over 24 h, Phenylalanine, Mean (SLC6A19; single dose 170 mg suspension): 141.61 mg
increase in total Phe excretion over 24 hr after dosing (SLC6A19; single dose 10-170 mg suspension, versus 10 mg baseline): ≤ 14 fold
increase in Hartnup AA excretion over 24 hr after dosing (SLC6A19; single dose 10-170 mg suspension, versus 0.29 g baseline): ≤ 16 fold
Hartnup AA excretion over 24 hr after dosing (SLC6A19; [2]): 4.8 g
total Phe excretion over 24 hr after dosing (SLC6A19; [2]): 142 mg
SMILES: NC(=O)N1CCC[C@@H](N(C(=O)NCc2ccc(OC(F)(F)F)cc2F)C2CC2)C1 [Cpd 1, (R)-3-(1-cyclopropyl-3-(2-fluoro-4-(trifluoromethoxy)benzyl)ureido) piperidine-1-carboxamide]
